Results on 9 compounds are retold here after patent US20040067531A1, “Methods of modulating protein tyrosine kinase function with substituted indolinone compounds” (SUGEN, INC., priority 1997, published 2004).

Series [1] addresses T1, EGFR protein (Homo sapiens, UniProt P00533).
T1 construct: A431 cell lysate; endogenous in cells; host or cells: A431
Description: ELISA assay measuring the kinase activity of the EGF receptor (EGFR captured from A431 cell lysate). It is filed as biochemical. Here is the method:
The following protocol describes the reagents and procedures used to analyze protein tyrosine kinase activity on the EGFR protein.
All of the following steps are conducted at room temperature unless it is specifically indicated. All ELISA plate washing is by rinsing 4× with TBST.
1. Coat Corning 96 well ELISA plates with 0.5 μg/well of SUMO1 in a volume of 100 μL PBS. Store overnight at 4° C.
2. Remove unbound SUMO1 by inverting plate to remove liquid. Wash plates with distilled water. Pat plate on a paper towel to remove excess liquid and bubbles
3. Add 150 μL of Blocking Buffer to each well. Incubate while shaking on a microliter plate shaker at room temperature for 30 min.
4. Wash 3× with deionized water, then once with TBST. Pat plate on a paper towel to remove excess liquid and bubbles.
5. Dilute lysate in PBS (7 μg of lysate/100 μL of PBS).
6. Add 100 μL of diluted lysate to each well. Shake at room temperature for 60 min.
7. Wash as described in step 4.
8. Add 120 μL TBS to ELISA plate containing captured EGFR.
9. Dilute drugs/extracts 1:10 (unless specified otherwise) in TBS in 96-well polypropylene plates.
10. Add 13.5 μL diluted drugs/extracts to ELISA plate.
11. Incubate for 30 minutes while shaking at room temperture.
12. […] Incubate while shaking on a micro-liter plate shaker at room temperature for 5 min.
13. Stop Kinase reaction with the addition of 16.5 μL of 200 mM EDTA pH 8.0 to all wells.
14. Wash 4× with deionized water and twice with TBST.
15. Add 100 μL per well of anti-phosphotyrosine (1:3000 dilution in TBST). Incubate while shaking on a micro-liter plate shaker 30-45 minutes at room temperature while shaking.
16. Wash as described in step 4.
17. Add 100 μL per well of biosource Goat anti-rabbit IgG peroxidase conjugate (1:2000 dilution in TBST). Incubate 30 min. at room temerature while shaking.
18. Wash as described in step 4.
19. Add 100 μL of ABTS/H2O2 solution to each well.
20. Incubate 5 to 15 minutes while shaking. Remove any bubbles.
21. If necessary stop reaction with the addition of 10 μL of 0.2 M HCl/well.
22. Read assay on Dynatech MR7000 ELISA Plate Reader.
(§1) The IC50 values were measured for several of the compounds of the invention.
For orientation: An ELISA detects its analyte on a solid surface through an enzyme-linked reagent.

Series [2] has as its target PDGF receptor (Homo sapiens, UniProt P09619). The experiment in a line: ELISA assay measuring the kinase activity of the PDGF receptor in U1242 cells. It is filed as cell-based. Conditions: ligand stimulation, phosphotyrosine ELISA. On the procedure: All cell culture media, glutanine, and fetal bovine serum were purchased from Gibco Life Technologies (Grand Island, N.Y.) unless otherwise specified. All cells were grown in a humid atmosphere of 90-95% air and 5-10% CO2 at 37° C. All cell lines were routinely subcultured twice a week and were negative for mycoplasma as determined by the Mycotect method (Gibco).
For ELISA assays, cells (U1242, obtained from Joseph Schlessinger, NYU) were grown to 80-90% confluency in growth medium (MEM with 10% FBS, NEAA, 1 mM NaPyr and 2 mM GLN) and seeded in 96-well tissue culture plates in 0.5% serum at 25,000 to 30,000 cells per well. After overnight incubation in 0.5% serum-containing medium cells were changed to serum-free medium and treated with test compound for 2 hr in a 5% CO21 37° C. incubator. […] Absorbance at 410 nm with a reference wavelength of 630 nm was recorded about 15 to 30 min after ABTS addition.
as §1

In series [3] the target is Myc-GyrB-FGFR fusion protein (Homo sapiens, UniProt P11362). The experiment in a line: ELISA assay measuring the kinase activity of the FGF receptor (Myc-GyrB-FGFR from COS/FGFR cell lysate). It is filed as biochemical. Conditions: 7 μM ATP.
Chain of Myc-GyrB-FGFR fusion protein (P11362 398-822): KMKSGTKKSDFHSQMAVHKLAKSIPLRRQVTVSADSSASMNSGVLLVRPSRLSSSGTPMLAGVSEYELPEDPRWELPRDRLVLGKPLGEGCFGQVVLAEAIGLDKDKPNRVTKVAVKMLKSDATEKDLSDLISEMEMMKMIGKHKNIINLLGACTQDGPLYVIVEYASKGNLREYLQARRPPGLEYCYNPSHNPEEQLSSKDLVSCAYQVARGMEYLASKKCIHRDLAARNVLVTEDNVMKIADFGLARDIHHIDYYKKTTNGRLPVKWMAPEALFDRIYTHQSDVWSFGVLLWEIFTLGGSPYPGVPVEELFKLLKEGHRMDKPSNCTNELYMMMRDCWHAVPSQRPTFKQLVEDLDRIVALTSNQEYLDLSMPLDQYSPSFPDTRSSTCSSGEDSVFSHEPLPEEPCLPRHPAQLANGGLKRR
Description: The following protocol describes the reagents and procedures used to analyze protein-tyrosine kinase activity of the Myc-GyrB-FGFR fusion protein.
Coat Corning 96 well ELISA plates with 1.0 μg/well of Rabbit αGyrB antibody in PBS for a total well volume of 100 μL. Store overnight at 4° C.
Remove unbound Rabbit antibody by inverting plate to remove liquid. Pat plate on a paper towel to remove excess liquid and bubbles
Add 100 μL of Blocking Buffer (TBB) to each well. Incubate while shaking on a microliter plate shaker at room temperature for 30 min.
Wash 4× with TBST. Pat plate on a paper towel to remove excess liquid and bubbles.
Add 15 μg COS/FGFR cell lysate Myc-GyrB-FGFR sources per well in HNTG for a final volume of 100 μL per well. Incubate while shaking on a micro-liter plate shaker at room temperature for 2 hours.
Wash 4× with TBST as described in step 4.
Add 80 μL of 1× kinase buffer per well.
Dilute compunds/extracts 1:10 (or as stated otherwise) in 1× kinase buffer +1% DMSO in a polypropylene 96 well plate.
At this point diluted Compounds/Extracts are added to the ELISA plate. […]

T1 sequence (P00533 25-1210): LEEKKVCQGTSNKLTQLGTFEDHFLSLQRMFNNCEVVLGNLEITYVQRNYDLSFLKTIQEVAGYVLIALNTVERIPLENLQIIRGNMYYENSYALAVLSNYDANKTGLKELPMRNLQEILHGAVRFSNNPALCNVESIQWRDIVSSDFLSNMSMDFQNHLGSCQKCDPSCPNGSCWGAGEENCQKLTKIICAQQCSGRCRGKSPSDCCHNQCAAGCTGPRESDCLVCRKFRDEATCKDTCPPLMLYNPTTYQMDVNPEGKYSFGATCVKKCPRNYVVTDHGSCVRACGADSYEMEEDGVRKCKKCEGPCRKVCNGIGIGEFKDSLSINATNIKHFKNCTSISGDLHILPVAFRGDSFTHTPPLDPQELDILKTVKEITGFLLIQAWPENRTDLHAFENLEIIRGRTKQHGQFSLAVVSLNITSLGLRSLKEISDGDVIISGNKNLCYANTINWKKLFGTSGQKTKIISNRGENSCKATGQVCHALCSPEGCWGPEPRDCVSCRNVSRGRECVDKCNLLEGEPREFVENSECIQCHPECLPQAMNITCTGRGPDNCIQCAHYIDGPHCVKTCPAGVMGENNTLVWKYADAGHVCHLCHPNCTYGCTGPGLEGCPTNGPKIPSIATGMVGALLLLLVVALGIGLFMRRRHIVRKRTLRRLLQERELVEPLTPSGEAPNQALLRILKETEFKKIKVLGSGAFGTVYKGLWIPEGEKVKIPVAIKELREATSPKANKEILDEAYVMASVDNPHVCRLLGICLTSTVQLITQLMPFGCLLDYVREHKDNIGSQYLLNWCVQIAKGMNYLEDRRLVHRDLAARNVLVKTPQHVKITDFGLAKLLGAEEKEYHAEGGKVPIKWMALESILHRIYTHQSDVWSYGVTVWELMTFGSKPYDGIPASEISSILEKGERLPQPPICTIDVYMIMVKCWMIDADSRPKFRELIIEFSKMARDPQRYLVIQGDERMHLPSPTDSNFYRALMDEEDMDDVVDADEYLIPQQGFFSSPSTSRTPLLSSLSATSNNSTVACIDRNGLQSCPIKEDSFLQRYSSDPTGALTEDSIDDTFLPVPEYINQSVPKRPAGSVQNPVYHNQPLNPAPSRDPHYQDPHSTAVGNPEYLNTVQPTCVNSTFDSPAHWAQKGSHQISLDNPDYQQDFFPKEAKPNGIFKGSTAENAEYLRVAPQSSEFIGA
Chain of PDGF receptor (P09619 33-1106): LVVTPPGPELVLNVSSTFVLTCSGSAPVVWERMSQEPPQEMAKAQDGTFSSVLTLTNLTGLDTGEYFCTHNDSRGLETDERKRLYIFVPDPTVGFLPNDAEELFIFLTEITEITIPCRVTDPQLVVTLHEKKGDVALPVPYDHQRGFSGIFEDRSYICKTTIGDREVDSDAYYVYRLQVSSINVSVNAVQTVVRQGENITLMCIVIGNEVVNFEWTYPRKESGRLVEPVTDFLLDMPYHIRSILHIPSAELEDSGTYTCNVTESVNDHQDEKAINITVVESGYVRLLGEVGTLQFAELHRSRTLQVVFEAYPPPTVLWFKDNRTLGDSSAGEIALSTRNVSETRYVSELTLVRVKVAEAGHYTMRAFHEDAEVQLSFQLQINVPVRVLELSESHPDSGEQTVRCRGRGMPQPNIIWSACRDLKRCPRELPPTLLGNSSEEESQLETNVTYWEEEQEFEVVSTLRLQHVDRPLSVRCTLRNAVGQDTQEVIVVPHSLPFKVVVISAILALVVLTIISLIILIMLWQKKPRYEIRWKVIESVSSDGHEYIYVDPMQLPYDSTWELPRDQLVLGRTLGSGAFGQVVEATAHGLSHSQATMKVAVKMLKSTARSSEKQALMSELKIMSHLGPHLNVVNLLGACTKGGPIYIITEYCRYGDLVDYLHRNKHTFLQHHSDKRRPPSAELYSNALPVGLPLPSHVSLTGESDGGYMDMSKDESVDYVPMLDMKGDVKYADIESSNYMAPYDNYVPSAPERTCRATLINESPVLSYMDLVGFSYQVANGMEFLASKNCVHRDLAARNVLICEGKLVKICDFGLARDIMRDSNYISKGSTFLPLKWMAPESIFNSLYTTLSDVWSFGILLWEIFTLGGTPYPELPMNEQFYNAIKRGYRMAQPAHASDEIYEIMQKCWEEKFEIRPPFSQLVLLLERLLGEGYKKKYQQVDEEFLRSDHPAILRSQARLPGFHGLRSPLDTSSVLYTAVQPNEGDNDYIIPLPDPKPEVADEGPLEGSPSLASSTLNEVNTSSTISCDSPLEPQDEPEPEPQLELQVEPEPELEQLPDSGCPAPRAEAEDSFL

With `COc1ccc2c(c1)NC(=O)C2=Cc1[nH]cc(C)c1CCC(=O)O` [IN-028, 3-[2-(6-Methoxy-2-oxo-1,2-dihydro-indol-3-ylidenemethyl)-4-methyl-1H-pyrrol-3-yl]-propionic acid], the IC50 in series [1] is greater than 100 µM.

On to `Cc1c[nH]c(C=C2C(=O)Nc3ccccc32)c1CCC(=O)O` [IN-026, 3-[4-Methyl-2-(2-oxo-1,2-dihydro-indol-3-ylidenemethyl)-1H-pyrrol-3-yl]-propionic acid], for which the IC50 in series [1] is greater than 100 µM.

`O=C(O)CCc1c(C=C2C(=O)Nc3ccc(Cl)cc32)[nH]c2c1CCCC2` [IN-002, 3-[2-(5-Chloro-2-oxo-1,2-dihydro-indol-3-ylidenemethyl)-4,5.6,7-tetrahydro-1H-indol-3-yl]-propionic acid]: the IC50 came out at 0.05 µM in series [2] and 0.37 µM in series [3]. For the compound `Cc1c[nH]c(C=C2C(=O)Nc3ccc(Cl)cc32)c1CCC(=O)O` [IN-027, 3-[2-(5-Chloro-2-oxo-1,2-dihydro-indol-3-ylidenemethyl)-4-methyl-1H-pyrrol-3-yl]-propionic acid], in series [1], the IC50 is greater than 100 µM. `Cc1c[nH]c(C=C2C(=O)Nc3cccc(C)c32)c1CCC(=O)O` [IN-029, 3-[2-(4-Methyl-2-oxo-1,2-dihydro-indol-3-ylidenemethyl)-4-methyl-1H-pyrrol-3-yl]-propionic acid] showed an IC50 in series [1] greater than 100 µM. Still for that read-out and setting: under `Cc1c[nH]c(C=C2C(=O)Nc3cc(Cl)ccc32)c1CCC(=O)O` [IN-030, 3-[2-(6-Chloro-2-oxo-1,2-dihydro-indol-3-ylidenemethyl)-4-methyl-1H-pyrrol-3-yl]-propionic acid] stands 98.1 µM. Turning to `O=C(CCc1c(C=C2C(=O)Nc3ccccc32)[nH]c2c1CCCC2)NCCN1CCOCC1` [IN-013, N-(2-Morpholin-4-yl-ethyl)-3-[2-(2-oxo-1,2-dihydro-indol-3-ylidenemethyl)-4,5,6,7-tetrahydro-1H-indol-3-yl]-propionamide], the melting point was 256 to 258 °C. On the same count and under the same terms, under `O=C(O)CCc1c(C=C2C(=O)Nc3ccccc32)[nH]c2c1CCCC2` [IN-001, 3-[2-(2-Oxo-1,2-dihydro-indol-3-ylidenemethyl)-4,5,6,7-tetrahydro-1H-indol-3-yl]-propionic acid] stands 263 to 265 °C.

On to `Cc1c[nH]c(C=C2C(=O)Nc3ccc(Br)cc32)c1CCC(=O)O` [IN-031, 3-[2-(5-Bromo-2-oxo-1,2-dihydro-indol-3-ylidenemethyl)-4-methyl-1H-pyrrol-3-yl]-propionic acid], for which the IC50 in series [1] is greater than 100 µM.

As usually defined, the IC50 is the concentration needed to halve the response being measured. Higher therefore signals a need for much substance. As usually defined, the melting point is the temperature, or range, at which the solid turns liquid.
